Key:
Human CYPs = experiment: CYP inhibition panel in pooled human liver microsomes, overall statement; format: in vitro ADME; settings: compared to C-analogue
Procedure: (§1) CYP inhibition: Co-incubation of compounds with P450 enzyme-selective substrates was performed using pooled human liver microsomes (Cat. No. H0610, Xenotech), to determine their potential to cause drug-drug interactions. The assay was performed in duplicate. The formation of acetaminophen, 7′-hydoxycoumarin, hydrobupropion, N-desethylamodiaquine, 4′-hydroxydiclofenac, 4′-hydroxymephenytoin, 1′-hydroxybufuralol, 6″-hydroxychlorzoxazone were quantified as markers for CYP1A2, CYP2A6, […], CYP2C8, CYP2C9, CYP2C19, […], CYP2E1, respectively. CYP3A4 inhibition was measured using 2 substrates, measuring the formation of […] (3A4-T), and 1′-hydroxymidazolam (3A4-M). The incubation was carried out in 96 deep well plates each well containing: 179 μL of the master solution (0.2 mg/mL microsomes plus CYP substrate (see below for final substrate concentration and incubation time for the different CYP assays)) in 100 mM phosphate buffer and 1 μL of the compound working solution or vehicle. The final concentrations of the compounds in the assay was 30 μM when using a single dose or 0.1, 0.3, 1, 3, 10 and 30 μM for a dose response.
(§2) The incubation plate was placed into a water bath and pre-warmed at 37° C. for 5 minutes before the reactions were started by the addition of 20 μL of 10 mM NADPH solution and incubated at 37° C. for the time listed above. […]

[1] = cytotoxicity in mock-infected A549 cells (MTS); format: cell-based; settings: human
Procedure: The lung cancer epithelial cell line A549 was obtained from the American Type Culture Collection (ATCC; Rockville, MD, USA) and cultured in MEM medium (Gibco BRL, Gaithersburg, MD, USA) with 10% fetal calf serum (FCS; Gibco BRL), 2 mM L-glutamine (Gibco BRL) and 0.075% sodium bicarbonate (Gibco BRL).
The anti-ZIKV and anti-DENV-2 activity in A549 cells was determined using a tetrazolium-based colorimetric cytopathic effect (CPE) reduction assay. […] A549 cells (1.5×10^4 cells in 100 μL cell culture medium) were seeded in 96-well flat bottom plates (TPP, Trasadingen, Switzerland) and incubated overnight to allow the cells to grow to confluency. Drug dilutions were prepared in culture medium where FCS concentration was decreased to 2% and threefold diluted in the plates (in duplicate). […] Three hours after MTS incubation, virus was inactivated using 0.5% Triton X-100 (Thermo Fisher Scientific, Waltham, MA, USA) and the absorbance was then recorded at 490 nm with a 96-well plate reader and compared with four cell control replicates (cells without virus and drugs) and four virus control wells (cells with virus but without drug). […] Absorbance was recorded using the VersaMax ELISA™ microplate reader (Molecular Devices) and analyzed with the Softmax Pro® software (Molecular Devices, Version 4.0). […]

MOLM-13 cells = experiment: MOLM-13 cell viability (Assay B), Cell Titer-Glo; format: cell-based
Outline: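 Cells at 1,000 per well in RPMI/10% FBS were exposed to compound (10E-5 to 6E-12 M), with or without 100 μM uridine, for 72 h. Viability was read by CellTiter-Glo luminescence. Duplicates were run, and potency was taken from two independent experiments.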

CYP1A2 = CYP1A2 (Homo sapiens (Human), UniProt P05177); experiment: CYP inhibition in pooled human liver microsomes; format: in vitro ADME
Procedure: as §1, §2

CYP2C8 = CYP2C8 (Homo sapiens (Human), UniProt P10632); experiment: biochemical; format: in vitro ADME
Procedure: as §1
(§3) The incubation plate was placed into a water bath and pre-warmed at 37° C. for 5 minutes before the reactions were started by the addition of 20 μL of 10 mM NADPH solution and incubated at 37° C. for the time listed above. The reaction was stopped by addition of 1.5 volumes (300 μL) of cold ACN containing 3% formic acid and 200 nM tolbutamide, 200 nM aprozolam and 200 nM labalol. The plate was centrifuged at 3,220 g for 50 minutes and then 200 μL of the supernatant was transferred to the analysis plate for LC/MS/MS analysis. The respective metabolite formation from each probe substrate was compared with that observed for the solvent control incubations.

CYP2E1 = CYP2E1 (Homo sapiens (Human), UniProt P05181); experiment: biochemical; format: in vitro ADME
Procedure: as §1, §3

CYP2C19 = CYP2C19 (Homo sapiens (Human), UniProt P33261); experiment: biochemical; format: in vitro ADME
Procedure: as §1, §3

CYP2D6 = CYP2D6 (Homo sapiens (Human), UniProt P10635); experiment: biochemical; format: in vitro ADME
Procedure: as §1, §3

CYP2C9 = CYP2C9 (Homo sapiens (Human), UniProt P11712); experiment: biochemical; format: in vitro ADME
Procedure: as §1, §3

CYP2B6 = CYP2B6 (Homo sapiens (Human), UniProt P20813); experiment: biochemical; format: in vitro ADME
Procedure: as §1, §3

CYP3A4 = CYP3A4 (Homo sapiens (Human), UniProt P08684); experiment: biochemical; format: in vitro ADME
Procedure: as §1, §3

CYP2A6 = CYP2A6 (Homo sapiens (Human), UniProt P11509); experiment: biochemical; format: in vitro ADME
Procedure: as §1, §3

CYP3A4, sequence (P08684 whole entry): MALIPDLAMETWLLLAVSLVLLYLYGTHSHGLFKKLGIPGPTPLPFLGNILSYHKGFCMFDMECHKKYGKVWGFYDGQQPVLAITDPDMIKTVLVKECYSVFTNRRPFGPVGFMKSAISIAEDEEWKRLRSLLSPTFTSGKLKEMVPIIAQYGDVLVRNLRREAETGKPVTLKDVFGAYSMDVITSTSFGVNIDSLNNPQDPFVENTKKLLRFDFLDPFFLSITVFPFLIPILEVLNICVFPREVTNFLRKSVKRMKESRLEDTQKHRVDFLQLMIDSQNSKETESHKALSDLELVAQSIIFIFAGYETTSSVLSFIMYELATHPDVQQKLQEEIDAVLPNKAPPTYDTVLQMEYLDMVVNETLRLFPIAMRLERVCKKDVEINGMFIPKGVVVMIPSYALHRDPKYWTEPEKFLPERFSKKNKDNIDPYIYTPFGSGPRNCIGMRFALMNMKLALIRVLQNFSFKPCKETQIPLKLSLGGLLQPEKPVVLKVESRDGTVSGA
CYP2A6, sequence (P11509 whole entry): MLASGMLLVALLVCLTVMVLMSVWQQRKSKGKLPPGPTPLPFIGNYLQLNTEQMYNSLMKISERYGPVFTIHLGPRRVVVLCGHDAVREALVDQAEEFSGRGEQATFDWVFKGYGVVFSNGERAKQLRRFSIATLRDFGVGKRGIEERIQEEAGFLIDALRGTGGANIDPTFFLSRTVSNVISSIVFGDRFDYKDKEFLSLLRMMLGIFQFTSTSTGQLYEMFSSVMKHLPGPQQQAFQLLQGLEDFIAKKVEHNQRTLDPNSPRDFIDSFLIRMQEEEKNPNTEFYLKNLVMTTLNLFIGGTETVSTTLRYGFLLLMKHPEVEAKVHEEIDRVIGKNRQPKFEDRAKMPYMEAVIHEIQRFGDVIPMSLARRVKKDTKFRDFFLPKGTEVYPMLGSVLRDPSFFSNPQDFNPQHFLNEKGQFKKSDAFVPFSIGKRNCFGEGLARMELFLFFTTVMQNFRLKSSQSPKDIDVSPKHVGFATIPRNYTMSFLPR
CYP2D6, sequence (P10635 whole entry): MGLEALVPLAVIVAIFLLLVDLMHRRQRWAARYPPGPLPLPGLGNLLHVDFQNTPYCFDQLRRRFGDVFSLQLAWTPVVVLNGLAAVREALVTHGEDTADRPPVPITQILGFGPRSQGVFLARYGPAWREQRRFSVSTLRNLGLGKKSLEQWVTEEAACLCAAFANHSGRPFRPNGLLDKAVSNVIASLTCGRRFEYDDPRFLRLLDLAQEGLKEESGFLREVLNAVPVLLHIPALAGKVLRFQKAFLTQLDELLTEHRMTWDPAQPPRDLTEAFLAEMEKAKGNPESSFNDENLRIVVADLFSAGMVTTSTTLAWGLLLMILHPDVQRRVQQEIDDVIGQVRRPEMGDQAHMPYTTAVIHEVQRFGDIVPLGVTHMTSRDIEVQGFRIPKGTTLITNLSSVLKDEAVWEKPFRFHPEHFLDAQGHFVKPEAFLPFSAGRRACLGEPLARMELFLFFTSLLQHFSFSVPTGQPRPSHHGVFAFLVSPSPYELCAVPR
CYP2C8, sequence (P10632 whole entry): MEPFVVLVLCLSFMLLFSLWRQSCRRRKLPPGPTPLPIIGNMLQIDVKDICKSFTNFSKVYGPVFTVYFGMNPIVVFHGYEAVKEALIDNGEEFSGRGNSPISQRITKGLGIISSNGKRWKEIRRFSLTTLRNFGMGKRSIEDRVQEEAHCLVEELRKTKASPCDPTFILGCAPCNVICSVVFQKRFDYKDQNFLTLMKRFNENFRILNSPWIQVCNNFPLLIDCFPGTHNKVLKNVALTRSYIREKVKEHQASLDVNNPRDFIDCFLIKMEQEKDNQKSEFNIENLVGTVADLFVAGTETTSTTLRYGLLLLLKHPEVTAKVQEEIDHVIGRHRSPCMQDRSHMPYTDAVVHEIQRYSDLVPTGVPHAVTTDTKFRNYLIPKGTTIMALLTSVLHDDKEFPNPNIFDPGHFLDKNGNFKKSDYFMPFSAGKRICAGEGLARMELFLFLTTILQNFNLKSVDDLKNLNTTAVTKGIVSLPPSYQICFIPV
CYP2B6, sequence (P20813 whole entry): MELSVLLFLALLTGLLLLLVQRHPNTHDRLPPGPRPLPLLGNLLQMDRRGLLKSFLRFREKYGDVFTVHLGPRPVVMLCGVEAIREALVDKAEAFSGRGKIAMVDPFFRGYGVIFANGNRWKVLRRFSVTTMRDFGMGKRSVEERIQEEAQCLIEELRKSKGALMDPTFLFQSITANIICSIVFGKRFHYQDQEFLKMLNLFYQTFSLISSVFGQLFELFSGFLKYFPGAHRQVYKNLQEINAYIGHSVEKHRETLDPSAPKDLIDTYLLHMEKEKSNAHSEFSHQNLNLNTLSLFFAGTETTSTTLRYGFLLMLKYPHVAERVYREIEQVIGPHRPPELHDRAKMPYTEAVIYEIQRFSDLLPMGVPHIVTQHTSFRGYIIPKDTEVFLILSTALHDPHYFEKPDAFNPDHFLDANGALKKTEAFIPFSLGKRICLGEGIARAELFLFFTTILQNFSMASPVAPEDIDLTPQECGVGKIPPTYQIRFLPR
CYP2C19, sequence (P33261 whole entry): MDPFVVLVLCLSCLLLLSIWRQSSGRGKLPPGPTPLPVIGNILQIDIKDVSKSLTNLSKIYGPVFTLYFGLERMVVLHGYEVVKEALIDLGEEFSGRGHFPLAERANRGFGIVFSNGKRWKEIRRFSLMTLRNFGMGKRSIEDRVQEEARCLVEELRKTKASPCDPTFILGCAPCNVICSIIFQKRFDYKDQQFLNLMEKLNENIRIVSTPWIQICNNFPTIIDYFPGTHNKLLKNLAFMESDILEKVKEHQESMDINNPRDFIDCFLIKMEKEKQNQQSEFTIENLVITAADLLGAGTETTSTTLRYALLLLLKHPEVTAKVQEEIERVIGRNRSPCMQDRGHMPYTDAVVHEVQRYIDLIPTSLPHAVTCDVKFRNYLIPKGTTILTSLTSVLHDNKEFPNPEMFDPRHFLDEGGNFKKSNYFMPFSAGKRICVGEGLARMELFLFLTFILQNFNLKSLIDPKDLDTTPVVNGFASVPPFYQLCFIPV
CYP2C9, sequence (P11712 whole entry): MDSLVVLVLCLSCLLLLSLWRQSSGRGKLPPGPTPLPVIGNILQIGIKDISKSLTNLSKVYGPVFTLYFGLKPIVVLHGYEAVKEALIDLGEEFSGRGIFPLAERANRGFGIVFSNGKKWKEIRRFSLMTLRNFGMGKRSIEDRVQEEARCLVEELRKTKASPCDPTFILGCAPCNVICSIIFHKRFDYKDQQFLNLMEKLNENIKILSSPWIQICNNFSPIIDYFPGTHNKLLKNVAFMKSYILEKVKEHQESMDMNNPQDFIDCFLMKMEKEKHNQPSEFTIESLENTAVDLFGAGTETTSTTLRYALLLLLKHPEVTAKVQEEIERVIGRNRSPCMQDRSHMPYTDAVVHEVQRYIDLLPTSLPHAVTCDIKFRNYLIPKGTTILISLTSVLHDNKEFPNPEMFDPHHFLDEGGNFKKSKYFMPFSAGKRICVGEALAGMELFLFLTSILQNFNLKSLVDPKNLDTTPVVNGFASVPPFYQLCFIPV
CYP1A2, sequence (P05177 whole entry): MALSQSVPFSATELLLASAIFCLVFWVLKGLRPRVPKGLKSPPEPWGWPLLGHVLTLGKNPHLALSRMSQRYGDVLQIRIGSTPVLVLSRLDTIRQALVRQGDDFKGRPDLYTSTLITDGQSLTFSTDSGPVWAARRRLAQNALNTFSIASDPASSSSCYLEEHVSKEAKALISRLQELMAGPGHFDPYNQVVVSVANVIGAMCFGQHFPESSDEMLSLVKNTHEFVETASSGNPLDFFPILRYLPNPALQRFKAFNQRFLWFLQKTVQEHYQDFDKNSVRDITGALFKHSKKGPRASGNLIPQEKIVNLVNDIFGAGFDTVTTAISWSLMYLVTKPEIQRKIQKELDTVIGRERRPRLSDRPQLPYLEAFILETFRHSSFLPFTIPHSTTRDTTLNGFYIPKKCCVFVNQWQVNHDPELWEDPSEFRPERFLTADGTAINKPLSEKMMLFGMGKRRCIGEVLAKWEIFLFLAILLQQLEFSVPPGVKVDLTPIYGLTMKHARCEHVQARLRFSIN
CYP2E1, sequence (P05181 whole entry): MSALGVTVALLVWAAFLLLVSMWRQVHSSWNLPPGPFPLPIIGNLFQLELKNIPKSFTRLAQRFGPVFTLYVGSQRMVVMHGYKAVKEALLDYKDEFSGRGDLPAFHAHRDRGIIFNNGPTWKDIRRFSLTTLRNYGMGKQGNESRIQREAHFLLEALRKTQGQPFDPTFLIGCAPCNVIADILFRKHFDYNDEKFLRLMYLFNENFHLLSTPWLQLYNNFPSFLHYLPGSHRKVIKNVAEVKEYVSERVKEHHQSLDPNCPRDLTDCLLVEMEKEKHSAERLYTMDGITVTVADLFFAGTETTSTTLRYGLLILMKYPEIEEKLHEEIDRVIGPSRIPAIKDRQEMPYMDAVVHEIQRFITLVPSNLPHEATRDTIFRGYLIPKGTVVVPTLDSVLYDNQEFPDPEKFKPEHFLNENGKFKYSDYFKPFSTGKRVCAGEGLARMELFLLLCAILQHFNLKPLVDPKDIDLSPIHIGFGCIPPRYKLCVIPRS

COc1ccc(F)c(-n2ncc3c2COC[C@H]3NC(=O)c2ncn3c2CCCC3)c1Cl (single isomer, unassigned) [Ex-9]
inhibition of human CYPs (Human CYPs): No Inhibition | HLM % remaining (in vitro; % remaining at 60 min, 1 μM): 100% | half-life at 1 μM (in vitro; both, human, pooled liver microsomes): > 6.08 h | CC50 [1]: 3.65 ± 0.1 µM | IC50 (MOLM-13 cells; Homo sapiens, MOLM-13, 72 hours, bins ≥10 nM-<100 nM and <10 nM, read-out: IC50 MOLM13 inhibition activity): < 0.01 µM | MOLM13 cell growth and/or viability (FIG. 2) (MOLM-13 cells; absence of uridine): reduce MOLM13 cell growth and/or viability | effect on MOLM13 cell growth and/or viability on addition of excess uridine (FIG. 2) (MOLM-13 cells; presence of 100 μM uridine): largely prevented | IC50 (CYP1A2): > 30 µM | IC50 (CYP2C8): > 30 µM | IC50 (CYP2E1): > 30 µM | IC50 (CYP2C19): > 30 µM | IC50 (CYP2D6): > 30 µM | IC50 (CYP2C9): > 30 µM | IC50 (CYP2B6): > 30 µM | IC50 (CYP3A4; IC50 CYP3A4-M, substrate Midozolam): > 30 µM | IC50 (CYP3A4; IC50 CYP3A4-T, substrate Testosterone): > 30 µM | IC50 (CYP2A6): > 30 µM

Reference: patent publication US20250388602A1 (Genase Therapeutics B.V., priority 2022, published 2025)
